Patent publication US6534520B2, “Antiviral compounds” (priority 1997, dated 2003)
Converted amounts (≈) assume the structure as drawn. Where two headings read alike, the source gives them in different places.

Tests used:
Influenza A = assay: microbe, parasite or virus in culture; type: cell-based; conditions: for IC50: Influenza A virus, read-out: INFLUENZA A IC50
[1] = Cytotoxicity run with the RSV test
[2] = Cytotoxicity run with the Adenovirus test
Rhinovirus (RV) = assay: Antiviral activity against Rhinovirus (CPE inhibition / neutral red); type: cell-based; conditions: for IC50: Enterovirus, read-out: RV IC50
[3] = Cytotoxicity run with the Influenza B test; type: cell-based
Procedure: (§1) Methods For Assay Of Cytotoxicity
(§2) In the CPE inhibition test, two wells of uninfected cells treated with each concentration of test Compound are run in parallel with the infected, treated wells. At the time CPE is determined microscopically, the toxicity control cells are also examined microscopically for any changes in cell appearance compared to normal control cells run in the same plate. These changes may be enlargement, granularity, cells with ragged edges, a filmy appearance, rounding, detachment from the surface of the well, or other changes. These changes are given a designation of T (100% toxic), PVH (partially toxic-very heavy-80%), PH (partially toxic-heavy-60%), P (partially toxic-40%), PS (partially toxic-slight-20%), or 0 (no toxicity-0%), conforming to the degree of cytotoxicity seen.
(§3) In the neutral red dye uptake phase of the antiviral test described above, the two toxicity control wells also receive neutral red and the degree of color intensity is determined spectrophotometrically. A neutral red CC50 (NRCC50) is subsequently determined.
(§4) C. ^3H Thymidine Uptake Assay
(§5) Flat bottom 96 well plates are plated with 5X10E3 Vero-34 cells/well and 1X10E4 Hs68 or Wi-38 cells/well respectively and incubated overnight at 37° C. and 5% CO2/air. After incubation, the supernatant medium is removed and replaced with test Compound dilutions in 2% DMEM (150 ul). The cells are then incubated 48 hours in a 5% CO2 incubator at 37° C.
(§6) 50 μl/well of 10 uCi/ml solution of [3H]-methyl thymidine (specific activity of approx. 2Ci/mmol) is added to the culture medium and incubated overnight (18 hours) in a 5% CO2 incubator at 37° C.
(§7) Cells are then collected onto a fiberglass filter (Printed Filtermat A 1450-421 Wallac) with a Tomtec cell harvester. Suspended cells are collected directly onto filter while for adherent cells, the medium is first removed, then the cells washed with PBS and trypsinized for 2-3 minutes (50 μl trypsin/well) before collecting.
(§8) Filters are dried for 1 hour at 37-40° C. and then placed into bags (1450-microbeta #1450-432 Wallac) with 4.5 ml of Betascint and counts obtained with Microbeta 1450 Wallac (protocol 1).
(§9) The percent of cell proliferation is determined by comparison to the control (no test Compound) and thereby establishing 50% inhibitory concentration is established.

Adenovirus = assay: Antiviral activity against Adenovirus (CPE inhibition / neutral red); type: cell-based
[4] = Cytotoxicity in PBMCs (anti-HIV tests); type: cell-based; conditions: human; PBMCs, HIVROJO
HIVTEKI = assay: Anti-HIV activity against HIVTEKI in PBMCs; conditions: Human immunodeficiency virus 1, PBMC, read-out: HIVTEKI (PBMCs) IC50
[5] = Cytotoxicity run with the Rhinovirus test
Parainfluenza = assay: Antiviral activity against Parainfluenza (CPE inhibition / neutral red); type: cell-based
[6] = test system: Respiratory Syncitial Virus (RSV); assay: Antiviral activity against RSV (CPE inhibition / neutral red); type: cell-based
HIVROJO = assay: Anti-HIV activity against HIVROJO in PBMCs; type: cell-based; conditions: for IC50: Human immunodeficiency virus 1, PBMC, read-out: HIVROJO (PBMCs) IC50
[7] = Cytotoxicity run with the Influenza A test; type: cell-based
Procedure: as §1, §2, §3, §4, §5, §6, §7, §8, §9

[8] = Cytotoxicity run with the Parainfluenza test
Influenza B = assay: microbe, parasite or virus in culture; type: cell-based; conditions: for IC50: Influenza B virus
HSV-1 = assay: Antiviral activity against HSV-1 (CPE inhibition / neutral red); type: cell-based, herpes simplex virus type 1
[9] = Cytotoxicity run with the HSV-1 test
HSV-2 = assay: Antiviral activity against HSV-2 (CPE inhibition / neutral red); type: cell-based, herpes simplex virus type 2
[10] = Cytotoxicity run with the HSV-2 test
uninfected cells [11] = assay: Cytotoxicity run with the Adenovirus test; conditions: cytotoxicity, Adenovirus test
uninfected cells [12] = test system: uninfected cells
uninfected cells [13] = assay: Cytotoxicity run with the Influenza B test; type: cell-based
Procedure: as §1, §2, §3, §4, §5, §6, §7, §8, §9

PBMCs = assay: Cytotoxicity in PBMCs (anti-HIV tests); type: cell-based
uninfected cells [14] = test system: uninfected cells; remark: listed apart in the source
uninfected cells [15] = assay: Cytotoxicity run with the Influenza A test; type: cell-based
Procedure: as §1, §2, §3, §4, §5, §6, §7, §8, §9

uninfected cells [16] = test system: uninfected cells; remark: listed apart in the source
uninfected cells [17] = assay: Cytotoxicity run with the Parainfluenza test; conditions: cytotoxicity, Parainfluenza test
uninfected cells [18] = test system: uninfected cells; remark: listed apart in the source
[19] = unidentified adenovirus; read-out: ADENOVIRUS IC50
[20] = human respiratory syncytial virus; read-out: RSV IC50
[21] = Human alphaherpesvirus 1; read-out: HSV-1 IC50

Row | SMILES | IC50 (Influenza A) [µg/mL] | CC50 [1] [µg/mL] | CC50 [2] [µg/mL] | IC50 (Rhinovirus (RV); Rhinovirus) [µg/mL] | CC50 [3] [µg/mL] | IC50 (Adenovirus; [19]) [µg/mL] | CC50 [4] [µg/mL] | IC50 (HIVTEKI) [µg/mL] | CC50 [5] [µg/mL] | IC50 (Parainfluenza) [µg/mL] | IC50 [6, 20] [µg/mL] | IC50 (HIVROJO; HIVROJO, PBMCs) [µg/mL] | CC50 [7] [µg/mL] | CC50 [8] [µg/mL] | IC50 (Influenza B) [µg/mL] | IC50 (HSV-1; [21]) [µg/mL] | CC50 [9] [µg/mL] | also measured
1 | C=Cc1cncc2ccc(C(=O)NCc3ccccc3OC(C)C)nc12 [#63, 8-(vinyl)-[1,6]Naphthyridine-2-carboxylic acid 2-isopropoxybenzylamine] | 5.6 (≈ 16.1 µM) | 5 (≈ 14.4 µM) | 7 (≈ 20.1 µM) | 2 (≈ 5.76 µM) | 2.4 (≈ 6.91 µM) | 9 (≈ 25.9 µM) | 7 (≈ 20.1 µM) | 4.9 (≈ 14.1 µM) | 9 (≈ 25.9 µM) | 10 (≈ 28.8 µM) | 12 (≈ 34.5 µM) | 0.7 (≈ 2.01 µM) | 5.6 (≈ 16.1 µM) | 8 (≈ 23 µM) | 5.2 (≈ 15 µM) |  |  | 
2 | Cc1cncc2ccc(C(=O)NCc3ccccc3OC(C)C)nc12 [#64, 8-(methyl)-[1,6]Naphthyridine-2-carboxylic acid 2-isopropoxybenzylamine] | 2.4 (≈ 7.16 µM) | 0.6 (≈ 1.79 µM) | 1 (≈ 2.98 µM) | > 0.08 | 1.8 (≈ 5.37 µM) | 3 (≈ 8.94 µM) | 4.3 (≈ 12.8 µM) | 0.8 (≈ 2.39 µM) | 16 (≈ 47.7 µM) | 1 (≈ 2.98 µM) | 0.6 (≈ 1.79 µM) | 0.28 (≈ 0.835 µM) | 2.4 (≈ 7.16 µM) | 1 (≈ 2.98 µM) | 1.8 (≈ 5.37 µM) | 2 (≈ 5.96 µM) | 3.5 (≈ 10.4 µM) | 
3 | C[C@@H](NC(=O)c1ccc2cncc(Br)c2n1)c1ccccc1 [#66, 8-Bromo-[1,6]naphthyridine-2-carboxylic acid (1-phenyl-ethyl)-amide] | 56 (≈ 157 µM) | 5 (≈ 14 µM) | 8 (≈ 22.5 µM) |  | 18 (≈ 50.5 µM) |  | 27.3 (≈ 76.6 µM) | 2.2 (≈ 6.18 µM) | 3 (≈ 8.42 µM) | 83 (≈ 233 µM) |  |  | 24 (≈ 67.4 µM) | 10 (≈ 28.1 µM) | 18 (≈ 50.5 µM) |  | 20 (≈ 56.1 µM) | IC50 (HSV-1; Human alphaherpesvirus 1, read-out: HSV-1 IC50): 1 µg/mL (≈ 2.81 µM); IC50 (Rhinovirus (RV)): 0.3 µg/mL (≈ 0.842 µM); IC50 (Adenovirus; unidentified adenovirus, read-out: ADENOVIRUS IC50): 9 µg/mL (≈ 25.3 µM); IC50 ([6]; human respiratory syncytial virus, read-out: RSV IC50): 4 µg/mL (≈ 11.2 µM); IC50 (HIVROJO): 1.4 µg/mL (≈ 3.93 µM)
4 | O=C(NCCc1ccccc1)C1=Cc2ccncc2CC1 [#67, 7,8-Dihydro-isoquinoline-6-carboxylic acid phenethyl-amide] | > 100 | 30 (≈ 108 µM) | 30 (≈ 108 µM) | > 20 | > 100 | > 100 | 74.7 (≈ 268 µM) | 41.2 (≈ 148 µM) | 40 (≈ 144 µM) | 100 (≈ 359 µM) | > 100 | 8.6 (≈ 30.9 µM) | > 100 | 30 (≈ 108 µM) | > 100 | 16 (≈ 57.5 µM) | > 100 | IC50 (HSV-2; Human alphaherpesvirus 2): 86 µg/mL (≈ 309 µM); CC50 [10]: > 100 µg/mL
5 | O=C(NCCc1c[nH]c2ccccc12)C1=Cc2ccncc2CC1 [#68] |  |  |  |  |  |  |  |  |  |  |  |  |  |  |  |  |  | INFLUENZA A IC50 (Influenza A): 2.1 µg/mL; ADENOVIRUS CC50 (uninfected cells [11]): 30 µg/mL; HSV-1 IC50 (HSV-1; HSV-1): 0.72 µg/mL; RV IC50 (Rhinovirus (RV); Rhinovirus): 2 µg/mL; HSV-2 CC50 (uninfected cells [12]): 14 µg/mL; INFLUENZA B CC50 (uninfected cells [13]): 11 µg/mL; ADENOVIRUS IC50 (Adenovirus; Adenovirus): 20 µg/mL; HSV-2 IC50 (HSV-2; HSV-2): 0.96 µg/mL; HIVROJO (PBMCs) CC50 (PBMCs): 7.1 µg/mL; PARAINFLUENZA IC50 (Parainfluenza; Parainfluenza): 50 µg/mL; RSV IC50 ([6]; RSV): 60 µg/mL; RSV CC50 (uninfected cells [14]): 20 µg/mL; HIVROJO (PBMCs) IC50 (HIVROJO; HIVROJO, PBMCs): 2.9 µg/mL; INFLUENZA A CC50 (uninfected cells [15]): 2.1 µg/mL; HSV-1 CC50 (uninfected cells [16]): 12 µg/mL; PARAINFLUENZA CC50 (uninfected cells [17]): 25 µg/mL; INFLUENZA B IC50 (Influenza B; Influenza B): 7.2 µg/mL; RV CC50 (uninfected cells [18]): 10 µg/mL
